Consider 19 molecules from publication PMC4701504, “Immunogenicity of HLA Class I and II Double Restricted Influenza A-Derived Peptides” (PLoS ONE, 2016).

In test [1] the target is recombinant HLA-DRA*01:01/DRB1*01:01 molecules (Homo sapiens, UniProt P01903+P01911, A100R/D57E/F55L/F60I/F76Y/I96L/L162R/M171V/P40L/Q125E/R42F/V115G/Y59C). Put plainly: biochemical. It is filed as binding.
Test [2] concerns the target HLA-A*02:01 (Homo sapiens, UniProt P04439, D140Y/D185E/D98H/E176V/E277Q/G131W/G231S/I119V/I121R/I166T/I218V/L300P/L318F/N151K/N90K/P208A/P217A/Q86G/Q94H/R138H/R169H/T345S). Put plainly: biochemical. It is filed as binding.
Test [3] deals with CD8 and CD4 T cells of HLA-A*02:01/HLA-DRB1*01:01 transgenic mice. It is filed as in vivo. More on the design: key: I, CD8 response; II, CD4 response; -,no response. The conditions noted are these: CAF09 + 20 nmol peptide i.p. three times at two week intervals; IFNγ ELISpot one week after last immunization (Fig 1).
Setting [4] is: read-out: HLA-DRB1*01:01 Measured.
The mark [5] stands for this setting: […], peptide concentration at half-saturation as approximation of KD, read-out: HLA-A*02:01 Measured.

Like-named read-outs stand apart in the source and are kept apart here. Where a SMILES comes first, the peptide text is derived from it.

With `CSCC[C@H](NC(=O)[C@@H](N)Cc1ccccc1)C(=O)N[C@@H](CCC(N)=O)C(=O)N[C@@H](C)C(=O)N[C@@H](CC(C)C)C(=O)N[C@@H](Cc1c[nH]cn1)C(=O)N[C@@H](CC(C)C)C(=O)N[C@@H](CC(C)C)C(=O)N[C@@H](CC(C)C)C(=O)O` [NS2(99–107)] (H-FMQALHLLL-OH), the results for the Kd in test [1] (setting [4]) and in test [2] (setting [5]) were above 5000 nM and 13 nM, respectively.

For `CSCC[C@H](NC(=O)CNC(=O)[C@H](CCSC)NC(=O)[C@H](CCSC)NC(=O)[C@@H](N)CCSC)C(=O)N[C@@H](Cc1ccccc1)C(=O)N[C@@H](CC(N)=O)C(=O)N[C@@H](CCSC)C(=O)N[C@@H](CC(C)C)C(=O)N[C@@H](CO)C(=O)N[C@H](C(=O)O)[C@@H](C)O` [PB1(407–417)] (H-MMMGMFNMLST-OH), the Kd in test [1] (setting [4]) is 315 nM; in test [2] (setting [5]) it was 36 nM.

Regarding `CC[C@H](C)[C@H](NC(=O)[C@@H]1CCCN1C(=O)[C@H](Cc1ccc(O)cc1)NC(=O)[C@H](CCCCN)NC(=O)[C@H](CCSC)NC(=O)[C@H](C)NC(=O)[C@H](CCSC)NC(=O)[C@H](CCSC)NC(=O)[C@@H](N)Cc1c[nH]c2ccccc12)C(=O)N[C@H](C(=O)N[C@@H](C)C(=O)O)[C@@H](C)O` [PB2(49–59)] (H-WMMAMKYPITA-OH), the results for the Kd in test [1] (setting [4]) and in test [2] (setting [5]) were 528 nM and 75 nM, respectively.

Turning to `CC[C@H](C)[C@H](NC(=O)[C@H](CC(C)C)NC(=O)[C@@H](N)Cc1ccc(O)cc1)C(=O)N[C@@H](CCCNC(=N)N)C(=O)N[C@@H](C)C(=O)N[C@@H](CC(C)C)C(=O)N[C@H](C(=O)N[C@@H](CC(C)C)C(=O)N[C@@H](CC(N)=O)C(=O)N[C@H](C(=O)N[C@@H](CCSC)C(=O)O)[C@@H](C)O)[C@@H](C)O` [PB1(217–227)] (H-YLIRALTLNTM-OH), the Kd in test [1] (setting [4]) came out at 76 nM; in test [2] (setting [5]) it was 46 nM.

Take `CSCC[C@H](NC(=O)CNC(=O)[C@H](CCSC)NC(=O)[C@@H](N)CCSC)C(=O)N[C@@H](Cc1ccccc1)C(=O)N[C@@H](CC(N)=O)C(=O)N[C@@H](CCSC)C(=O)N[C@@H](CC(C)C)C(=O)N[C@@H](CO)C(=O)N[C@H](C(=O)N[C@H](C(=O)O)C(C)C)[C@@H](C)O` [PB1(408–418)] (H-MMGMFNMLSTV-OH): the Kd was 172 nM in test [1] (setting [4]) and 51 nM in test [2] (setting [5]).

Regarding `CSCC[C@H](NC(=O)CN)C(=O)N[C@@H](Cc1ccccc1)C(=O)N[C@@H](CC(N)=O)C(=O)N[C@@H](CCSC)C(=O)N[C@@H](CC(C)C)C(=O)N[C@@H](CO)C(=O)N[C@H](C(=O)N[C@H](C(=O)N[C@@H](CC(C)C)C(=O)O)C(C)C)[C@@H](C)O` [PB1(410–419)] (H-GMFNMLSTVL-OH), the Kd in test [1] (setting [4]) was 29 nM; in test [2] (setting [5]) it was 384 nM.

Turning to `CSCC[C@H](NC(=O)[C@@H](N)CC(N)=O)C(=O)N[C@@H](CC(C)C)C(=O)N[C@@H](CO)C(=O)N[C@H](C(=O)N[C@H](C(=O)N[C@@H](CC(C)C)C(=O)NCC(=O)N[C@H](C(=O)O)C(C)C)C(C)C)[C@@H](C)O` [PB1(413–421)] (H-NMLSTVLGV-OH), the Kd in test [1] (setting [4]) was above 5000 nM; in test [2] (setting [5]), 16 nM.

LLQNSQVYS [NP(306–315)]: the “Response: type of immune response, CD4 (second symbol)” value in test [3] is reported as “-”. In test [1] (pH 7, read-out: HLA-DRB1*01:01 Measured), the Kd was above 5000 nM.

In the case of `CC[C@H](C)[C@H](NC(=O)[C@H](CCSC)NC(=O)[C@H](C)NC(=O)[C@H](CC(C)C)NC(=O)[C@@H](N)Cc1ccccc1)C(=O)N[C@H](C(=O)N[C@@H](Cc1ccc(O)cc1)C(=O)N[C@@H](CCSC)C(=O)N[C@H](C(=O)O)[C@@H](C)O)[C@@H](C)O` [PB1(318–326)] (H-FLAMITYMT-OH), the Kd is 557 nM in test [1] (setting [4]) and 253 nM in test [2] (setting [5]).

For `CC[C@H](C)[C@H](NC(=O)[C@H](CO)NC(=O)[C@H](CC(C)C)NC(=O)[C@H](CCCCN)NC(=O)[C@H](CC(C)C)NC(=O)[C@H](C)NC(=O)[C@H](CC(=O)O)NC(=O)[C@H](CCSC)NC(=O)[C@H](CC(C)C)NC(=O)[C@H](CC(C)C)NC(=O)[C@@H](N)Cc1ccccc1)C(=O)O` [PA(282–292)] (H-FLLMDALKLSI-OH), the Kd in test [1] (setting [4]) was determined as 23 nM; in test [2] (setting [5]), 24 nM.

In the case of `CC(C)C[C@H](NC(=O)[C@H](CCCCN)NC(=O)[C@H](CC(C)C)NC(=O)[C@@H](NC(=O)[C@H](CC(N)=O)NC(=O)[C@H](CCC(N)=O)NC(=O)[C@H](CCCCN)NC(=O)[C@@H](NC(=O)[C@H](Cc1ccc(O)cc1)NC(=O)[C@H](CCCCN)NC(=O)[C@@H](N)Cc1ccc(O)cc1)C(C)C)[C@@H](C)O)C(=O)N[C@@H](C)C(=O)N[C@H](C(=O)N[C@@H](Cc1c[nH]cn1)C(=O)N[C@@H](Cc1c[nH]cn1)C(=O)N[C@@H](Cc1c[nH]cn1)C(=O)N[C@@H](Cc1c[nH]cn1)C(=O)N[C@@H](Cc1c[nH]cn1)C(=O)N[C@@H](Cc1c[nH]cn1)C(=O)O)[C@@H](C)O` [Reference peptide, reference compound] (H-YKYVKQNTLKLATHHHHHH-OH), the Kd in test [1] came to 8 nM.

For the molecule `CSCC[C@H](NC(=O)[C@H](CO)NC(=O)[C@H](CCC(=O)O)NC(=O)[C@H](CCSC)NC(=O)[C@@H](NC(=O)[C@H](CC(=O)O)NC(=O)[C@H](CCCCN)NC(=O)[C@H](CC(C)C)NC(=O)[C@@H](N)Cc1ccccc1)C(C)C)C(=O)O` [PB1(166–174)] (H-FLKDVMESM-OH), the Kd in test [1] is above 5000 nM; in test [2] (setting [5]), 51 nM.

On to `CC[C@H](C)[C@H](NC(=O)[C@@H]1CCCN1C(=O)[C@H](Cc1ccc(O)cc1)NC(=O)[C@H](CCCCN)NC(=O)[C@H](CCSC)NC(=O)[C@H](C)NC(=O)[C@H](CCSC)NC(=O)[C@H](CCSC)NC(=O)[C@@H](N)Cc1c[nH]c2ccccc12)C(=O)O` [PB2(49–57)] (H-WMMAMKYPI-OH), for which the Kd in test [1] (setting [4]) is above 5000 nM; in test [2] (setting [5]), 36 nM.

On to `CC[C@H](C)[C@H](NC(=O)[C@H](CC(C)C)NC(=O)[C@H](C)NC(=O)[C@H](CO)NC(=O)[C@H](CCCNC(=N)N)NC(=O)[C@H](C)NC(=O)[C@H](CC(C)C)NC(=O)[C@@H](N)Cc1ccccc1)C(=O)N[C@@H](CC(C)C)C(=O)O` [NP(258–266)] (H-FLARSALIL-OH), for which the values for the Kd in test [1] (setting [4]) and in test [2] were 97 nM and 0.9 nM, respectively.

Take `CC[C@H](C)[C@H](NC(=O)[C@@H]1CCCN1C(=O)[C@H](CCCNC(=N)N)NC(=O)[C@@H](NC(=O)[C@H](CCCCN)NC(=O)[C@H](CC(C)C)NC(=O)[C@H](Cc1c[nH]c2ccccc12)NC(=O)[C@H](CCC(=O)O)NC(=O)[C@H](CCSC)NC(=O)[C@H](CC(C)C)NC(=O)[C@@H](N)C(C)C)[C@@H](C)O)C(=O)O` [M(41–51)] (H-VLMEWLKTRPI-OH): the Kd in test [1] (setting [4]) was 119 nM; in test [2] (setting [5]), 101 nM.

Turning to `CC[C@H](C)[C@H](N)C(=O)N[C@H](C(=O)N[C@@H](CC(C)C)C(=O)N[C@@H](CCCCN)C(=O)N[C@@H](C)C(=O)N[C@@H](CC(N)=O)C(=O)N[C@@H](Cc1ccccc1)C(=O)N[C@@H](CO)C(=O)N[C@H](C(=O)O)C(C)C)[C@@H](C)CC` [NS1(128–136)] (H-IILKANFSV-OH), the Kd is above 5000 nM in test [1] (setting [4]) and 45 nM in test [2] (setting [5]).

In the case of `CC[C@H](C)[C@H](NC(=O)CNC(=O)[C@@H](NC(=O)[C@H](CC(C)C)NC(=O)[C@@H](N)CO)C(C)C)C(=O)N[C@@H](CC(=O)O)C(=O)N1CCC[C@H]1C(=O)N[C@@H](Cc1ccccc1)C(=O)N[C@@H](CCCNC(=N)N)C(=O)N[C@@H](CC(C)C)C(=O)O` [NP(297–306)] (H-SLVGIDPFRL-OH), the Kd in test [1] was found to be 460 nM; in test [2] (setting [5]) it was 70 nM.

As to `CSCC[C@H](NC(=O)[C@@H](N)CCCNC(=N)N)C(=O)NCC(=O)N[C@@H](C)C(=O)N[C@H](C(=O)N[C@H](C(=O)N[C@H](C(=O)N[C@@H](CCC(=O)O)C(=O)N[C@H](C(=O)O)C(C)C)[C@@H](C)O)[C@@H](C)O)C(C)C` [M(134–142)] (H-RMGAVTTEV-OH), the figures for the Kd in test [1] (setting [4]) and in test [2] were above 5000 nM and 133 nM, respectively.

As for `CSCC[C@H](NC(=O)CN)C(=O)N[C@@H](Cc1ccccc1)C(=O)N[C@@H](CC(N)=O)C(=O)N[C@@H](CCSC)C(=O)N[C@@H](CC(C)C)C(=O)N[C@@H](CO)C(=O)N[C@H](C(=O)N[C@H](C(=O)O)C(C)C)[C@@H](C)O` [PB1(410–418)] (H-GMFNMLSTV-OH), the Kd in test [1] (setting [4]) was determined as 34 nM; in test [2] (setting [5]), 23 nM.
